Molecules are shown by their SMILES. “And” between values parts separate entries of the source, which are not always exact repeats. Equal entries are not always repeated. Results filed as inconclusive are left out.

The subject of this experiment is CD8F1 mice, subcutaneous mammary adenocarcinoma, T/C%. Description: NCI In Vivo Anticancer Drug Screen. Data for tumor model Mammary Adenocarcinoma CD8F1 (subcutaneous) in CD8F1. The settings on record: higher = larger tumour. Put shortly: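 Antitumor activity is assessed in transplantable-tumor mice by comparing the treated group with a vehicle-treated control group. Survival or tumor size serves as the measure, reported as T divided by C.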

The mark [1] stands for this setting: endpoint: median tumor weight (est.), dose: 25.0 mg/kg/injection, schedule: Q07DX005 (ip), vehicle: saline with Tween-80.
[2] abbreviates: endpoint: median tumor weight (est.), dose: 50.0 mg/kg/injection, schedule: Q07DX005 (ip), vehicle: saline with Tween-80.
Where [3] appears, read: endpoint: median tumor weight (est.), dose: 400.0 mg/kg/injection, schedule: Q07DX005 (ip), vehicle: saline with Tween-80.
[4] abbreviates: endpoint: median tumor weight (est.), dose: 12.5 mg/kg/injection, schedule: Q07DX005 (ip), vehicle: Klucel (hydroxypropylcellulose) (HPC).
The mark [5] stands for this setting: endpoint: median tumor weight (est.), dose: 25.0 mg/kg/injection, schedule: Q07DX005 (ip), vehicle: Klucel (hydroxypropylcellulose) (HPC).
Setting [6] is: endpoint: median tumor weight (est.), dose: 50.0 mg/kg/injection, schedule: Q07DX005 (ip), vehicle: Klucel (hydroxypropylcellulose) (HPC).
Setting [7] is: endpoint: median tumor weight (est.), dose: 100.0 mg/kg/injection, schedule: Q07DX005 (ip), vehicle: Klucel (hydroxypropylcellulose) (HPC).
Setting [8] is: endpoint: median tumor weight (est.), dose: 200.0 mg/kg/injection, schedule: Q07DX005 (ip), vehicle: Klucel (hydroxypropylcellulose) (HPC).
Where [9] appears, read: endpoint: median tumor weight (est.), dose: 400.0 mg/kg/injection, schedule: Q07DX005 (ip), vehicle: Klucel (hydroxypropylcellulose) (HPC).

Turning to `C[C@]12CC[C@@H]3c4ccc(OC(=O)Cc5ccc(N(CCCl)CCCl)cc5)cc4CC[C@H]3[C@@H]1CC[C@@H]2OC(=O)Cc1ccc(N(CCCl)CCCl)cc1`, the T/C is 54 % of control (endpoint: mean tumor weight, dose: 25.0 mg/kg/injection, schedule: Q07DX005 (ip), vehicle: saline with Tween-80); 47 % of control (endpoint: mean tumor weight, dose: 50.0 mg/kg/injection, schedule: Q07DX005 (ip), vehicle: saline with Tween-80); 45 % of control (endpoint: mean tumor weight, dose: 100.0 mg/kg/injection, schedule: Q07DX005 (ip), vehicle: saline with Tween-80); 38 % of control (endpoint: mean tumor weight, dose: 200.0 mg/kg/injection, schedule: Q07DX005 (ip), vehicle: saline with Tween-80); 65 % of control (endpoint: mean tumor weight, dose: 400.0 mg/kg/injection, schedule: Q07DX005 (ip), vehicle: saline with Tween-80); 79 % of control and 93 % of control under setting [1]. Moreover, the T/C was 45 % of control and 51 % of control under setting [2]; 10 % of control under setting [3].
As to `CNc1nc(NC)nc(NC)n1`, the T/C was 83 % of control under setting [4]; 86 % of control (endpoint: median tumor weight (est.), dose: 12.5 mg/kg/injection, schedule: Q07DX006 (ip), vehicle: Klucel (hydroxypropylcellulose) (HPC)); 163 % of control under setting [5]; 72 % of control (endpoint: median tumor weight (est.), dose: 25.0 mg/kg/injection, schedule: Q07DX006 (ip), vehicle: Klucel (hydroxypropylcellulose) (HPC)); 107 % of control under setting [6]; 203 % of control (endpoint: median tumor weight (est.), dose: 50.0 mg/kg/injection, schedule: Q07DX006 (ip), vehicle: Klucel (hydroxypropylcellulose) (HPC)). Also, the T/C under setting [7] is 93 % of control; the T/C (endpoint: median tumor weight (est.), dose: 100.0 mg/kg/injection, schedule: Q07DX006 (ip), vehicle: Klucel (hydroxypropylcellulose) (HPC)) is 294 % of control; the T/C under setting [8] was 174 % of control; the T/C (endpoint: median tumor weight (est.), dose: 200.0 mg/kg/injection, schedule: Q07DX006 (ip), vehicle: Klucel (hydroxypropylcellulose) (HPC)) is 117 % of control; the T/C under setting [9] is 65 % of control.
`Cc1c[nH]c(=O)[nH]c1=O`: the T/C (endpoint: median tumor weight (est.), dose: 64.0 mg/kg/injection, schedule: Q07DX005 (ip), vehicle: Klucel (hydroxypropylcellulose) (HPC)) is 214 % of control and 74 % of control; the T/C (endpoint: median tumor weight (est.), dose: 128.0 mg/kg/injection, schedule: Q07DX005 (ip), vehicle: Klucel (hydroxypropylcellulose) (HPC)) was 112 % of control and 118 % of control.
On to `CCC/C=C/C=C/C(=O)OC1/C(=C/C(=O)OC)CC2CC(C(C)O)OC(=O)CC(O)CC3CC(OC(C)=O)C(C)(C)C(O)(CC4C/C(=C/C(=O)OC)CC(/C=C/C(C)(C)C1(O)O2)O4)O3` (stereo unspecified), for which the T/C (endpoint: median tumor weight change, dose: 0.02 mg/kg/injection, schedule: Q01DX001 (ip), vehicle: saline + alcohol) was 63 % of control; the T/C (endpoint: median tumor weight change, dose: 0.04 mg/kg/injection, schedule: Q01DX001 (ip), vehicle: saline + alcohol) was 115 % of control; the T/C (endpoint: median tumor weight change, dose: 0.09 mg/kg/injection, schedule: Q01DX001 (ip), vehicle: saline + alcohol) was 95 % of control; the T/C (endpoint: median tumor weight change, dose: 0.19 mg/kg/injection, schedule: Q01DX001 (ip), vehicle: saline + alcohol) was 22 % of control.
`C[N+](C)(C)c1cc2c(nn1)Nc1ccccc1S2`: the T/C under setting [4] is 86 % of control, the T/C under setting [5] is 106 % of control, the T/C under setting [6] was 107 % of control and the T/C under setting [7] was 116 % of control.
For the compound `O=Cc1ccc(O)c(O)c1`, the T/C (endpoint: median tumor weight (est.), dose: 100.0 mg/kg/injection, schedule: Q07DX005 (ip), vehicle: suspension in saline) was 160 % of control.
`COC1C(C)OC(OC2CC(C)(O)Cc3cc4c(c(O)c32)C(=O)c2c(O)cc3c(c2C4=O)OC2OC3(C)C(O)C(N(C)C)C2O)C(OC)C1(C)OC` (stereo unspecified): the T/C is, setting by setting: (endpoint: median tumor weight (est.), dose: 2.5 mg/kg/injection, schedule: Q07DX005 (ip), vehicle: other) 161 % of control; (endpoint: median tumor weight (est.), dose: 5.0 mg/kg/injection, schedule: Q07DX005 (ip), vehicle: other) 94 % of control; (endpoint: median tumor weight (est.), dose: 10.0 mg/kg/injection, schedule: Q07DX005 (ip), vehicle: other) 57 % of control.
Consider `C/C=C(\C)c1cc(=O)c2c(C)cc3c(c2o1)C(=O)c1c(O)c(C2CC(C)(N(C)C)C(O)C(C)O2)cc(C2CC(N(C)C)C(O)C(C)O2)c1C3=O` (stereo unspecified), for which the T/C is, setting by setting: (endpoint: median tumor weight change, dose: 0.16 mg/kg/injection, schedule: Q01DX001 (ip), vehicle: saline) 78 % of control; (endpoint: median tumor weight change, dose: 0.31 mg/kg/injection, schedule: Q01DX001 (ip), vehicle: saline) 51 % of control; (endpoint: median tumor weight change, dose: 0.62 mg/kg/injection, schedule: Q01DX001 (ip), vehicle: saline) 52 % of control; (endpoint: median tumor weight change, dose: 2.5 mg/kg/injection, schedule: Q01DX001 (ip), vehicle: suspension in saline) 61 % of control; (endpoint: median tumor weight change, dose: 5.0 mg/kg/injection, schedule: Q01DX001 (ip), vehicle: suspension in saline) 42 % of control; (endpoint: median tumor weight change, dose: 10.0 mg/kg/injection, schedule: Q01DX001 (ip), vehicle: saline) -9 % of control.
For the compound `N#Cc1cn(C2OC(CO)C(O)C2O)c2ncnc(N)c12` (stereo unspecified), the T/C is 86 % of control (endpoint: median tumor weight (est.), dose: 0.12 mg/kg/injection, schedule: Q07DX005 (ip), vehicle: saline); 53 % of control (endpoint: median tumor weight (est.), dose: 0.25 mg/kg/injection, schedule: Q07DX005 (ip), vehicle: saline); 55 % of control (endpoint: median tumor weight (est.), dose: 0.5 mg/kg/injection, schedule: Q07DX005 (ip), vehicle: saline); 63 % of control (endpoint: median tumor weight (est.), dose: 1.0 mg/kg/injection, schedule: Q07DX005 (ip), vehicle: saline).
`N#CCCN(C(=S)Nc1cccc(C(F)(F)F)c1)C1CCCCC1`: the T/C runs as follows: under setting [5], 66 % of control; under setting [6], 116 % of control; under setting [7], 75 % of control; under setting [8], 60 % of control; under setting [9], 38 % of control; (endpoint: median tumor weight (est.), dose: 800.0 mg/kg/injection, schedule: Q07DX005 (ip), vehicle: Klucel (hydroxypropylcellulose) (HPC)) 60 % of control.
As to `c1ccc2sc(SSN3CC4CCC(CC4)C3)nc2c1`, the T/C was 26 % of control (endpoint: median tumor weight (est.), dose: 12.5 mg/kg/injection, schedule: Q07DX005 (ip), vehicle: saline with Tween-80); 33 % of control under setting [1]; 101 % of control under setting [2]; 81 % of control (endpoint: median tumor weight (est.), dose: 100.0 mg/kg/injection, schedule: Q07DX005 (ip), vehicle: saline with Tween-80); 62 % of control (endpoint: median tumor weight (est.), dose: 200.0 mg/kg/injection, schedule: Q07DX005 (ip), vehicle: saline with Tween-80); 53 % of control under setting [3].
For `O=[N+]([O-])/C=C\c1ccc2c(c1)OCO2`, the T/C runs as follows: (endpoint: median tumor weight (est.), dose: 6.25 mg/kg/injection, schedule: Q07DX005 (ip), vehicle: Klucel (hydroxypropylcellulose) (HPC)) 102 % of control; under setting [4], 59 % of control; under setting [5], 86 % of control; under setting [6], 60 % of control; under setting [7], 55 % of control; under setting [8], 83 % of control.
For `c1ccc2c(c1)[As]=c1ccccc1=[As]2` (stereo unspecified), the T/C runs as follows: (endpoint: median tumor weight change, dose: 60.0 mg/kg/injection, schedule: Q01DX001 (ip), vehicle: saline with Tween-80) 159 % of control; (endpoint: median tumor weight change, dose: 120.0 mg/kg/injection, schedule: Q01DX001 (ip), vehicle: saline with Tween-80) 158 % of control; (endpoint: median tumor weight change, dose: 240.0 mg/kg/injection, schedule: Q01DX001 (ip), vehicle: saline with Tween-80) 31 % of control.
`COc1cccc2c1C(=O)c1c(O)c3c(c(O)c1C2=O)CC(O)(/C(C)=N/NC(=O)CCCCC(=O)N/N=C(\C)C1(O)Cc2c(O)c4c(c(O)c2C(OC2CC(N)C(O)C(C)O2)C1)C(=O)c1c(OC)cccc1C4=O)CC3OC1CC(N)C(O)C(C)O1` (stereo unspecified): the T/C is 113 % of control (endpoint: median tumor weight change, dose: 16.0 mg/kg/injection, schedule: Q01DX001 (ip), vehicle: water) and 36 % of control (endpoint: median tumor weight change, dose: 31.0 mg/kg/injection, schedule: Q01DX001 (ip), vehicle: water).
`Clc1ccc(C(c2ccc(Cl)cc2)C(Cl)(Cl)Cl)cc1`: the T/C (endpoint: median tumor weight change, dose: 31.25 mg/kg/injection, schedule: Q01DX001 (ip), vehicle: Klucel (hydroxypropylcellulose) (HPC)) is 106 % of control; the T/C (endpoint: median tumor weight change, dose: 62.5 mg/kg/injection, schedule: Q01DX001 (ip), vehicle: Klucel (hydroxypropylcellulose) (HPC)) is 84 % of control; the T/C (endpoint: median tumor weight change, dose: 125.0 mg/kg/injection, schedule: Q01DX001 (ip), vehicle: Klucel (hydroxypropylcellulose) (HPC)) is 123 % of control; the T/C (endpoint: median tumor weight change, dose: 250.0 mg/kg/injection, schedule: Q01DX001 (ip), vehicle: Klucel (hydroxypropylcellulose) (HPC)) is 80 % of control; the T/C (endpoint: median tumor weight change, dose: 500.0 mg/kg/injection, schedule: Q01DX001 (ip), vehicle: Klucel (hydroxypropylcellulose) (HPC)) was 59 % of control.

The record behind these values is PubChem BioAssay AID220 (DTP/NCI, 2004).
